The subject of one assay is AQP2. The assay can be described thus: Bilateral ureteral obstruction (BUO), semiquantitative immunoblotting of AQP2. The class given is in vivo, rat. As to conditions: inner medulla, 24 h BUO; α-MSH 50 μg i.v. at onset and 12 hours later (nontreated 13±4%); epoitin 100 U/kg/day i.p. (nontreated 16±3%). On the procedure: (§1) Adult Munich-Wistar rats were anesthetized with halothane and placed on a heating board under an operating microscope, Through a midline abdominal incision both ureters were exposed and occluded by placing a 5-mm piece of bisected polyethylene tubing (PE-50) around the midportion of each ureter. The ureter was then occluded by tightening the tubing with a 5-0 silk ligature. 24 hours later, the obstructed ureters were decompressed by removal of the ligature and the PE-50 tubing. Done in this manner, both ureters could be completely occluded for 24 h and without evidence of functional impairment of ureteral function and rats followed up to several days after release of obstruction.
(§2) Protocol III-1: This protocol included 1) Rats with BUO for 24 hours (n=20) and 2) sham-operated rats (n=10).
Protocol III-6: This protocol included 1) Rats with BUO for 24 hours and 2) sham-operated rats. […]
(§3) ECL films with bands within the linear range were scanned using an AGFA scanner (ARCUS II) and Corel Photopaint Software to control the scanner. […] The labeling density was determined of blots where samples of kidneys from α-MSH treated and nontreated groups were run together with samples from control kidneys. […]

Assay [1] relates to renal function in rats with BUO. The assay can be described thus: Bilateral ureteral obstruction (BUO), plasma parameters and clearance studies. It is filed as in vivo, rat. The protocol:
as §1, §2
(§4) Protocol III-3: This protocol included 1) Rats with BUO for 24 hours and followed by release for 48 hours. The rats were divided into two groups: α-MSH nontreated (n=10) and α-MSH treated (n=13). α-MSH (50 μg) was given with micro-osmotic pump via jugular vein at the onset of BUO. 2) Sham operated rats (n=8) treated with vehicle with micro-osmotic pump.
1) Rats with BUO for 24 hours followed by release for 48 hours (n=10) and 2) sham-operated rats (n=5).
Weight, water intake, food intake and urine output were observed during the rats were maintained in the metabolic cages. Urine was collected over 24-h periods throughout the study. Urine volume, osmolality, creatinine, sodium and potassium concentration were measured. Plasma was collected from abdominal aorta at the time of sacrifice for measurement of sodium and potassium concentration, creatinine, and osmolality. In protocols 4 and 9 detailed examinations of renal function was performed: The experiments were carried out between 8 a.m. and 1 p.m. The rats were transferred to a restraining cage and connected to infusion pumps via the vein catheter and to a BP transducer via the arterial catheter. Urine was collected in three periods of 20 min preceded by an equilibration period of 105 min. Throughoutthe experiment, a half isotone saline (77 mM NaCl) was infused at a rate of 70 μl/min to maintain a minimum urine flow necessary for accuracy of the bladder emptying. ^14C-tetraethylammonium bromide (0.83 μCi/ml; New England Nuclear, Boston, Mass.), together with ^3H-inulin (2.5 μCi/ml; Amersham, Rainham, United Kindgom) and LiCI (13 mmol/L), were infused together with the saline as markers of effective renal plasma flow (ERPF), GFR, and tubular fluid delivery from proximal tubules (Vprox), respectively. A bolus of markers four times the continuous infusion velocity was given in the first 15 min. Blood samples (200 μl) were drawn from the arterial catheter after 105 and 165 min. Blood substitution with donor blood was given after each blood sample. Mean arterial BP was recorded continuously using a Uniflow™ transducer (Baxter, Irvine, Calif.) connected to a preamplifier and PC registration. Clearance experiments were carried out in BUO and SHAM rats 7 days prior to obstruction and 48 hours after release of BUO.
Urine volume was determined by gravimetric means.

The subject of assay [2] is adriamycin-induced nephrotic syndrome. The assay can be described thus: Adriamycin-induced nephrotic syndrome.
Procedure: Protocol IV-1. Rats were treated with adriamycin (7.5 mg/kg i.p.; n=12) and followed for 21 days, respectively. Shams received saline i.p. (n=6). […] The other half received vehicle (saline) in osmotic minipumps.
Protocol IV-3. Rats were treated with adriamycin (7.5 mg/kg i.p.; n=8) and followed for 21 days, respectively. Shams received saline i.p. (n=6). Half of the adriamycin treated animals received epoetin (100 units/kg/day) during the entire experiments. The other half received vehicle (saline).
For assay [3], the system named is lung tissue exposed with LPS. The assay can be described thus: LPS-inhalation induced lung inflammation, differential counting of lavage cells. As to conditions: rats, LPS inhalation 5 mg for 20 min, lavage 24 h later, treatment at onset of LPS and after 12 hours (α-MSH 50 μg i.v.; Epoitin 100 U/kg/day i.p.).
Procedure: Studies were performed on male Spraque Dawley rats (Møllegard Breeding centre Ltd., Eiby, Denmark). The rats were maintained on a standard rodent diet (Altromin, Lage, Germany) with free access to water. Inflammation of the lungs (asthma) was induced by LPS inhalation with the animals anesthetized using Midazolam and Hypnorm The LPS was administrated by connecting the rat to a semiclosed breathing system consisting of a MAXIN bottle filled with a mixture of LPS in saline connected to a standard inhalation chamber. Each animals is exposed for 20 min with 5 mg LPS. Twenty-four hours after exposure to LPS rats were killed. Subsequently, lavage was performed by washing the lungs with PBS (5 ml) 6 times. The lung tissue was then centrifuged for 10 min (1000 rpm) and resuspended in 0.5 ml. From each sample 2 blood smears were made. They were air-dryed, fixed and counterstained for differential cell counting.
In a further assay the test system is Na,K-ATPase. The assay is described as follows: Bilateral ureteral obstruction (BUO), semiquantitative immunoblotting of Na,K-ATPase. The class given is in vivo, rat. As to conditions: whole kidney; for Na-K-ATPase levels, % of control: nontreated 35-50% of control levels. On the procedure:
as §1, §2
(§5) Protocol III-2: This protocol included 1) Rats with BUO for 24 hours and followed by release for 5 hours (n=10) and 2) Sham operated rats (n=5). The rats with BUO-R were divided into two groups: α-MSH nontreated (n=5) and α-MSH treated (n=5). α-MSH ([…], i.v.) was given at the onset of BUO, 12 hours later and at the onset of release.
Protocol III-3: This protocol included 1) Rats with BUO for 24 hours and followed by release for 48 hours. The rats were divided into two groups: α-MSH nontreated (n=10) and α-MSH treated (n=13). α-MSH (50 μg) was given with micro-osmotic pump via jugular vein at the onset of BUO. 2) Sham operated rats (n=8) treated with vehicle with micro-osmotic pump. […]
as §3

The subject of assay [4] is renal function in rats treated with continious LPS infusion. The assay is described as follows: Systemic LPS infusion by osmotic minipump for three days, renal function. As to conditions: for increase of GFR (creatinin clearance) compared to the LPS-Vehicle group: LPS infusion for three days; for survival during 3 days of LPS-administration: N=5 per group, mortality in vehicle group 20%.
Procedure: To relieve postoperative pain, rats were treated with buprenorfin, 0.2 mg/kg body weight i.p. Two weeks later the rats were anesthetized with halothane-nitrous oxide and a osmotic minipump (Alzet 1003D)filled with a LPS solution was implanted into the abdomen. The mean infusion rate of LPS was 200 μg/kg/hour. All rats except the control rats received LPS infusion. N=5 in all groups.
Protocol II: Systemic LPS-infusion:
II-1. Controls. Untreated rats without LPS infusion.
II-2 Vehicle: Rats receiving LPS infusion treated with 0.5 ml 0.9% NaCl twice daily.
II-3 rh-EPO: Rats receiving LPS infusion treated with 200 I.U. epoitin alpha (EPO)/kg body weight in 0.5 ml 0.9% NaCl twice daily.

A further assay deals with AQP1. The assay can be described thus: Bilateral ureteral obstruction (BUO), semiquantitative immunoblotting of AQP1. The class given is in vivo, rat. The protocol: as §1, §5, §4
Inner medulla and whole kidneys were homogenized (0.3 M sucrose, 25 mM imidazole, 1 mM EDTA, pH 7.2, containing 8.5 μM leupeptin. 1 mM phenylmethyl sulfonylfluoride) using an ultra-turrax T8 homogenizer (IKA Labortechnik, Germany), at 5 strokes for 20 seconds (inner medulla) or at 5.5 strokes for 30 seconds (whole kidney) and the homogenate was centrifuged in an Eppendorf centrifuge at 4000 g for 15 minutes at 4° C. to remove whole cells, nuclei and mitochondria. Gel samples (Laemmli sample buffer containing 2% SDS) were made of this pellet.
[…] For each gel, identical gel was run in parallel and subjected to Coomassie staining to assure identical loading. Then gels were subjected to immunoblotting. […] The labeling was visualized with horseradish peroxidase (HRP)-conjugated secondary antibodies (P448, DAKO, Glostrup Denmark, diluted as 1:3000) using an enhanced chemiluminescence system (ECL, Amersham International, UK).
ECL films with bands within the linear range were scanned using an AGFA scanner (ARCUS II) and Corel Photopaint Software to control the scanner. For AQP1 and AQP2, both the 29-kDa and the 35- to 50-kDa bands (corresponding to nonglycosylated and the glycosylated species) were scanned. […] The labeling density was determined of blots where samples of kidneys from α-MSH treated and nontreated groups were run together with samples from control kidneys. […]

The subject of the next assay is AQP3. The assay can be described thus: Bilateral ureteral obstruction (BUO), semiquantitative immunoblotting of AQP3. It is filed as in vivo, rat. As to conditions: inner medulla. The protocol:
as §1, §2
Protocol III-2: This protocol included 1) Rats with BUO for 24 hours and followed by release for 5 hours (n=10) and 2) Sham operated rats (n=5). […]
as §3

The subject of assay [5] is purimycin-induced nephrotic syndrome. The assay is described as follows: Purimycin (PAN)-induced nephrotic syndrome.
Procedure: Nephrotic syndrome was induced by a single i.p. or s.c. injection of adriamycin or purimycin (at various doses) and the rats were followed for 7 days-21 days. Development of severe nephrotic syndrome was established by monitoring the total body weight, urinary protein excretion (proteinuria) and at time of ending the experiment the volume of fluid in the abdominal cavity was determined (rats develop severe water retention and ascites).
Protocol IV-2. Rats were treated with purimycin (100 mg/kg i.p., n=6) and followed for 11 days, respectively.
To determine the levels of proteinuria in experimental nephrotic syndrome urine was examined daily using Albym (Boehringer-Mannheim).
[6] abbreviates: BUO for 24 h followed by 48 h of release.

Turning to “α-melanocyte-stimulating hormone [α-MSH]”, the “AQP2 expression, % of sham level” value with AQP2 is listed as 38±5%. In assay [1] (24 h BUO, without α-MSH 135±2 mmol/L), the plasma sodium levels came out at 139 ± 0.6 mmol/L. For the same substance, the “Glomerular filtration rate (GFR)” value in [1] (48 hours after release of BUO, SHAM 840±105) amounted to 705±85 μl/min/100 g. Besides, the “Effective renal plasma flow (ERPF)” value in assay [1] (48 hours after release of BUO, SHAM 2633±457) is reported as 2598±129 μl/min/100 g. This substance yielded a plasma urea in [1] (BUO for 24 h followed by 48 of release, nontreated 35±9 mmol/l) of 13 ± 2 mmol/L. This substance also gave a Plasma creatinine levels in [1] (BUO for 24 h followed by 48 of release, nontreated 160±34 μmol/l) of 79 ± 34 µmol/L. Moreover, in [1] (setting [6]), the “ERPF, result in words” value is listed as “completely normalized”. Moreover, the “GFR, result in words” value in assay [1] (setting [6]) is reported as “completely normalized”. For the same substance, the “prevention of ascites production” value in assay [2] (adriamycin i.p. (Protocol IV-1), α-MSH for 3-4 days after injection) is 89±7%. For the same substance, the “Differential counting of cells %, Eosinofiles” value in assay [3] was 1.8±1.3%. The “Differential counting of cells %, Lymfocytes” value in [3] was 72.3 ± 12.1%. Further, the “Differential counting of cells %, Monocytes” value in assay [3] was determined as 12.3 ± 7.4%. For the same substance, the entries for the “Na-K-ATPase levels, % of control” value in the assay with Na,K-ATPase (24 h BUO followed by 5 h of release) and with Na,K-ATPase (48 hours after release of BUO) were 102±14% and 114±10%, respectively. In addition, the “Na,K-ATPase levels” value in the assay on Na,K-ATPase (24 h BUO, result in words) is “completely normalized”. Besides, in assay [4], the “increase of GFR (creatinin clearance) compared to the LPS-Vehicle group” value was found to be 57%. The “survival during 3 days of LPS-administration” value in assay [4] was “All animals survived”. The “AQP1 expression, % of sham level” value with AQP1 (outer medulla and cortex, 24 h BUO followed by release for 5 hours, nontreated 35±2%) came to 62±9%; in the assay on AQP1 (outer medulla and cortex, 24 h BUO followed by release for 48 hours, α-MSH by micro-osmotic pump), 73±8%; in the assay with AQP1 (whole kidney, 24 h BUO followed by release for 5 hours, α-MSH 50 μg i.v. at onset, 12 hours later and at release, nontreated 7±2%), 81±21%; with AQP1 (whole kidney, 24 h BUO followed by release for 48 hours, α-MSH 50 μg by micro-osmotic pump, nontreated 24±5%), 58±6%. Also, the “AQP3 expression, % of sham level” value in the assay on AQP3 (24 h BUO followed by release for 5 hours, nontreated 14±5%) was 34±4%; in the assay with AQP3 (24 h BUO, α-MSH 50 μg i.v. at onset and 12 hours later, nontreated 19±4%), 44±3%. Moreover, the proteinuria levels result in assay [5] (PAN rats at day 5 after PAN injection (FIG. 3), result in words) was “marked reduction”. In addition, the proteinuria result in assay [5] (low dose purimycin treatment (Protocol IV-2), result in words) was “marked reduction”. In addition, in assay [5] (low dose purimycin treatment, n=6 (Protocol IV-2)), the “reduction of ascites production” value was 80±8%. Also, in [5] (very servere purimycin (high dose) induced nephrotic syndrome, result in words), the “preventive effect on nephrotic syndrome” value is on record as “less potent effect”.

In the case of epoitin alpha, the “AQP2 expression, % of sham level” value with AQP2 is 30±18%. Further, the “ascites formation, result in words” value in [2] (adriamycin-induced nephrotic syndrome, EPO once every 24 hours) is given as “prevented the ascites formation”. Also, in assay [3], the “Differential counting of cells %, Eosinofiles” value was found to be 0.7 ± 0.6%; the “Differential counting of cells %, Lymfocytes” value stood at 77.1 ± 9.9%; the “Differential counting of cells %, Monocytes” value is listed as 11.4 ± 4.6%; the “Differential counting of cells %, Neutrofiles” value amounted to 10.9 ± 12.7%. In addition, in assay [3] (listed as epoitin), the “Differential counting of cells %, Eosinofiles” value is listed as 0.7±0.6% and the “Differential counting of cells %, Neutrofiles” value is recorded as 10.9±12.7%. In assay [4], the “increase of GFR (creatinin clearance) compared to the LPS-Vehicle group” value was found to be 51% and the “survival during 3 days of LPS-administration” value is “All animals survived”.
